# Data reported in patent US20260337225A1, “SMALL PEPTIDE AND USE THEREOF IN MUCOSAL REPAIR” (FORREST BIO-PHARM (SHENZHEN) CO., LTD., priority 2022, published 2026).
# Where “and” joins values, the source holds several entries; their conditions need not be identical. Identical values can stand only once. No end group written: not given here.
# Columns and labels:
# [1] = test system: normal human kidney-2 cells (HK-02, HK-2); experiment: Nephrotoxicity: cytotoxicity in HK-2 cells by CCK-8 assay; type: cell-based; conditions: 10-200 μg/mL, 24 h, in words
# Protocol: Referring to the method from a literature (Sinomenine improve diabetic nephropathy by inhibiting fibrosis and regulating the JAK2/STAT3/SOCS1 pathway in streptozotocin-induced diabetic rats. Life Sci. 2021; 265:118855), normal human kidney-2 cells (HK-02, HK-2) (Shanghai Cell Bank) were seeded into 96-well plates and administered with small peptides P1 and P2 at concentrations of 0 μg/mL, 10 μg/mL, 20 μg/mL, 50 μg/mL, 100 μg/mL, and 200 μg/mL. After 24-hour stimulation, the cytotoxicity was assessed by Cell Counting Kit-8 (CCK-8) assay.
# [2] = test system: mouse model of acute gastric ulcer; experiment: Mouse model of acute gastric ulcer (anhydrous ethanol); type: in vivo
# Protocol: In this embodiment, the function of the small peptides obtained in Embodiment 2 was validated using a mouse model of acute gastric ulcer.
# Control group (model group): A mouse mode of acute gastric ulcer was constructed using anhydrous ethanol (0.1 mL/10 g) (referring to the literature of Study on Action of kangfuxin Solution on Experimental Gastric ulcer [J]. Chinese Traditional Patent Medicine, 2001, 23(2): 122-124. DOI: 10.3969/j.issn.1001-1528.). After modeling, the mice were administered with an equal volume of saline.
# Blank group: The mice were administered with an equal volume of saline.
# Drug treatment groups: A mouse mode of acute gastric ulcer was constructed by treating the mouse with anhydrous ethanol (0.1 mL/10 g). At 2 h, 12 h, and 22 h after modeling, the mice were administered with the rice polypeptide mixture (50 mg/kg) as the mixture group, small peptide P1 (0.5 mg/kg) as the P1 group, and small peptide P2 (0.5 mg/kg) as the P2 group, respectively.
# Each group consisted of 8 mice. After 24 h of modeling, the mice were sacrificed, to extract the gastric tissue, and observe changes in bleeding points and ulcer area via gastric tissue dissection.
# Rat liver = experiment: Animal safety observation: rat liver injury (serum alaninetransaminase activity); type: in vivo; conditions: 14 days; for Alaninetransaminase Activity, Average / Alaninetransaminase Activity: intragastric gavage, rat serum; for Alaninetransaminase Activity, Average: average of 6 rats, saline average P1 35.83333, P2 30.83333; for Alaninetransaminase Activity: individual rats (Rat 1-6)
# Protocol: (§1) The rats were administered with the small peptides via intragastric gavage at doses of 500 mg/kg and 1000 mg/kg daily for 14 days. Changes in body weight were recorded. On day 14, the rats were sacrificed to measure alaninetransaminase (ALT) activity and blood urea nitrogen (BUN) levels in rat serum for assessing whether there was hepatotoxicity and nephrotoxicity in rats.
# [3] = test system: rat model of chronic gastric ulcer; experiment: Rat model of chronic gastric ulcer (anhydrous ethanol followed by aspirin); type: in vivo
# Protocol: The function of the small peptides obtained in Embodiment 2 was validated in the present embodiment by using a rat model of chronic gastric ulcer.
# Control group (model group): A rat model of chronic gastric ulcer model was constructed by intragastric administration of anhydrous ethanol (1 mL/200 g), followed by intragastric administration of 200 mg/kg aspirin 2 h later. The rats were administered with aspirin once daily for 4 days. At day 5, the rats were administered with an equal volume of saline.
# Blank group: The rats were administered with an equal volume of saline.
# Drug treatment groups: A rat model of chronic gastric ulcer was constructed as above-mentioned. At day 5, the rats were respectively administered with the rice polypeptide mixture (50 mg/kg), small peptide P1 (0.5 mg/kg), or small peptide P2 (0.5 mg/kg) twice daily for 3 days. On day 4, the rats were sacrificed and their gastric necropsy was performed.
# Positive control group (omeprazole 2.6 mg/kg): A rat model of chronic gastric ulcer was constructed as above. At day 5, the rats were administered with omeprazole (2.6 mg/kg) twice daily for 3 days. On day 4, The rats were sacrificed and their gastric necropsy was performed.
# Each group consisted of 10 rats. After 24 h of modeling, the rats were sacrificed to extract the gastric tissue, for measuring gastric pH, and observing changes in ulcer area via gastric tissue dissection. Liver and kidney tissues were collected for pathological section observation to assess drug safety.
# [4] = Animal safety observation: rat body weight; type: in vivo; conditions: for Rat body weight: 1000 mg/kg daily, intragastric gavage, individual rats, Rat 1-7 = c1-c7, 1000 mg/kg
# Protocol: as §1
# mucosal repair = experiment: Screening of active monomers for mucosal repair effects; conditions: repeated experiments and screening; in words
# Description: The inventors observed the active monomers in the polypeptide mixture of Polimi-1 rice variety by mass spectrometry analysis of the polypeptides from various ordinary rice varieties and Polimi-1 rice variety. The small peptides identical to ordinary rice varieties and with high levels in ordinary rice varieties were excluded by a method of exclusion. Finally, the small peptides with higher levels in Polimi-1 rice variety and lower levels in other ordinary rice varieties were selected for further study, as well as those with higher levels in Polimi-1 rice variety and absent in other ordinary rice varieties. Since peptides with molecular weights below 1500 Daltons were extracted from the mixed polypeptide mixture previously obtained, other peptides above this threshold were excluded.
# Rat kidney = experiment: Animal safety observation: rat kidney injury (serum blood urea nitrogen levels); type: in vivo; conditions: 14 days; for Blood Urea Nitrogen Levels: intragastric gavage, rat serum, individual rats (Rat 1-6)
# Protocol: as §1
# [5] = test system: normal human hepatic parenchymal L-02 cells; experiment: Hepatotoxicity: cytotoxicity in L-02 cells by CCK-8 assay; type: cell-based; conditions: 10-200 μg/mL, 24 h, in words
# Protocol: Referring to the method from a literature (Determination of emodin in L-02 cells and cell culture media with liquid chromatography-mass spectrometry: Application to a cellular toxicokinetic study. J Pharm Biomed Anal. 2012; 71:71-78), normal human hepatic parenchymal L-02 cells (obtained from Shanghai Cell Bank) were seeded into 96-well plates and treated with small peptides P1 and P2 at concentrations of 0 μg/mL, 10 μg/mL, 20 μg/mL, 50 μg/mL, 100 μg/mL, and 200 μg/mL. After 24-hour stimulation, the cytotoxicity was assessed by Cell Counting Kit-8 (CCK-8) assay.
# [6] = 500 and 1000 mg/kg daily, rats, in words
sequence,measurement,setting,value
"GPSGPELRG [Small peptide P2, GPSGPELRG]",viability of normal human kidney cells HK-02 (HK-2),[1],no effect
same,nephrotoxicity,[1]; HK-2 cells,no nephrotoxicity
same,Ulcer index,"[2]; 0.5 mg/kg at 2 h, 12 h and 22 h after modeling, 8 mice, ratio of ulcer area to gastric mucosal tissue area, Control group 58.3 ± 10.1",7.1 ± 5.5%
same,Ulcer inhibition rate,"[2]; 0.5 mg/kg at 2 h, 12 h and 22 h after modeling, percentage reduction in ulcer area compared to the Control group",87.8%
same,result compared to the mixture group,"[2]; 0.5 mg/kg versus mixture 50 mg/kg, in words",better results than the mixture in larger dose
same,anti-ulcer effects,"[2]; 0.5 mg/kg, in words",excellent anti-ulcer effects
same,"Alaninetransaminase Activity, Average",Rat liver; 500 mg/kg daily,29.33 IU/L
same,Alaninetransaminase Activity,Rat liver; 500 mg/kg daily,34 IU/L (2×) and 42 IU/L and 17 IU/L and 21 IU/L and 28 IU/L
same,"Alaninetransaminase Activity, Average",Rat liver; 1000 mg/kg daily,36.67 IU/L
same,Alaninetransaminase Activity,Rat liver; 1000 mg/kg daily,29 IU/L and 43 IU/L and 45 IU/L and 33 IU/L and 32 IU/L and 38 IU/L
same,hepatotoxicity,Rat liver; [6],without hepatotoxicity
same,Ulcer index,"[3]; 0.5 mg/kg twice daily for 3 days, 10 rats, ratio of ulcer area to gastric mucosal tissue area, Control group 40.5 ± 5.3",5.5 ± 3.7%
same,Ulcer inhibition rate,"[3]; 0.5 mg/kg twice daily for 3 days, percentage reduction in ulcer area compared to the Control group",86.4%
same,anti-ulcer effects,"[3]; P1, P2 0.5 mg/kg, mixture 50 mg/kg, in words",exhibit anti-ulcer effects
same,P versus Positive control group,"[3]; anti-ulcer effects compared to omeprazole 2.6 mg/kg, P1, P2 0.5 mg/kg, mixture 50 mg/kg",> 0.05
same,Rat body weight,[4]; Day 1,208 g and 215 g and 219 g and 218 g and 217 g (2×) and 214 g
same,Rat body weight,[4]; Day 2,210 g and 216 g (2×) and 220 g and 221 g and 223 g and 218 g
same,Rat body weight,[4]; Day 3,211 g and 220 g and 221 g and 222 g and 225 g and 210 g and 219 g
same,Rat body weight,[4]; Day 4,213 g and 224 g
same,Rat body weight,[4]; Day 5,214 g and 225 g (2×) and 229 g (2×) and 221 g and 226 g
same,Rat body weight,[4]; Day 6,214 g and 226 g and 225 g and 231 g and 230 g and 224 g and 229 g
same,Rat body weight,[4]; Day 7,215 g and 226 g and 230 g (2×) and 237 g and 232 g and 225 g
same,Rat body weight,[4]; Day 8,216 g and 229 g (2×) and 233 g and 236 g and 234 g and 232 g
same,Rat body weight,[4]; Day 9,221 g and 230 g and 235 g (2×) and 239 g and 234 g and 231 g
same,Rat body weight,[4]; Day 10,224 g and 231 g and 238 g and 240 g and 239 g and 235 g and 237 g
same,Rat body weight,[4]; Day 11,225 g and 234 g and 239 g and 242 g (2×) and 238 g and 240 g
same,Rat body weight,[4]; Day 12,230 g and 235 g and 239 g and 244 g (2×) and 245 g and 240 g
same,Rat body weight,[4]; Day 13,231 g and 238 g and 240 g and 245 g (2×) and 249 g and 241 g
same,Rat body weight,[4]; Day 14,235 g and 239 g and 241 g and 248 g and 250 g and 244 g (2×)
same,Rat body weight,[4]; Day 15,238 g and 241 g and 242 g and 250 g and 252 g and 245 g (2×)
same,effects on rat body weight,"[4]; daily intragastric gavage for 14 days, in words",minimal effects
same,mucosal repair effects,mucosal repair,found to have mucosal repair effects
same,Blood Urea Nitrogen Levels,Rat kidney; 500 mg/kg daily,19 mg/dL and 37 mg/dL and 32 mg/dL and 34 mg/dL and 42 mg/dL and 33 mg/dL
same,Blood Urea Nitrogen Levels,Rat kidney; 1000 mg/kg daily,23 mg/dL and 29 mg/dL and 35 mg/dL and 39 mg/dL and 43 mg/dL and 44 mg/dL
same,nephrotoxicity,Rat kidney; [6],without hepatotoxicity and nephrotoxicity
same,viability of normal human liver cells L-02,[5],no effect
same,hepatotoxicity,[5]; L-02 cells,no hepatotoxicity
